Laboratory results reported in patent US20050075335A1, “Pharmaceutical composition comprising n((1-n-butyl-4-piperidinyl)methyl)-3,4-dihydro-2h-(1,3)oxazino(3,2-a)indole-10-carboxamide or salt and process therefor comprising dry granulation” (priority 2002, published 2005).
Counter-ions that a name gives are not always drawn.

Assay: Aerated and tapped bulk density of SB-207266-A
Type: physicochemical
Settings: SB-207266-A batches from Description 1

| Aerated bulk density [g/mL] | Tapped bulk Density [g/mL] | SMILES |
| --- | --- | --- |
| 0.146 | 0.310 | CCCCN1CCC(CNC(=O)c2c3n(c4ccccc24)CCCO3)CC1.Cl [BDC-G-04C] |
| 0.152 | 0.308 | CCCCN1CCC(CNC(=O)c2c3n(c4ccccc24)CCCO3)CC1.Cl [BDC-G-05C] |
| 0.136 | 0.250 | CCCCN1CCC(CNC(=O)c2c3n(c4ccccc24)CCCO3)CC1.Cl [BDC-H-01C] |
| 0.142 | 0.300 | CCCCN1CCC(CNC(=O)c2c3n(c4ccccc24)CCCO3)CC1.Cl [BDC-G-02C] |
| 0.173 | 0.339 | CCCCN1CCC(CNC(=O)c2c3n(c4ccccc24)CCCO3)CC1.Cl [BDC-G-03C] |

Same assay, conditions: typical value, product of Description 2

| Aerated bulk density | Tapped bulk Density | SMILES |
| --- | --- | --- |
| ca. 0.14 g/ml | ca. 0.31 g/ml | CCCCN1CCC(CNC(=O)c2c3n(c4ccccc24)CCCO3)CC1 [SB-207266-A, N-[(1-^nbutyl-4-piperidinyl)methyl]-3,4-dihydro-2H-[1,3]-oxazino[3,2-a]indole-10-carboxamide hydrochloride] |
